{"source": "patent US12473283B2", "about": "“Compounds and their use” (Debiopharm International S.A., priority 2019, dated 2025)", "key": {"[1]": {"test_system": "Acinetobacter baumannii ATCC 17978", "experiment": "MIC against the in vivo test strain", "type": "cell-based", "conditions": "Acinetobacter baumannii, ATCC17978; A. baumannii ATCC 17978", "description": "The antibacterial activity of FabI inhibitors against select Gram-negative and Gram-positive bacterial species including susceptible and multi-drug resistant A. baumannii, E. coli, K. pneumoniae and S. aureus was tested using the broth microdilution Minimal Inhibitory Concentration (MIC) assay following CLSI guidelines for insoluble compounds. Test articles were serially diluted 2-fold in 100% dimethyl sulfoxide (DMSO) and then diluted 100-fold into cation adjusted Mueller-Hinton broth (CA-MHB) to achieve a 10-point test concentration range in 1% DMSO. Final compound concentrations were 0.016-8 μg/ml for S. aureus or 0.06-32 μg/ml for the Gram-negative species. MIC test plates were then prepared by transferring 100 μl of the final assay medium (test article in CA-MHB, 1% DMSO) into the appropriate wells of a sterile, low binding 96-well polystyrene plate. Direct colony suspension inoculums of the test strains were freshly prepared per CLSI guidelines, and the appropriate test wells were inoculated to achieve a final bacterial cell density of 5×10^5 CFU/ml. Growth control (no test article) and negative control (no bacterial inoculum) wells were also included. Exposure to light was minimized during all stages of assay preparation. […] Bacterial growth was then determined by measuring the optical density at 600 nm (OD600) using a SpectraMax Plus plate-reader spectrophotometer.\n(§1) On day 0, animals were inoculated intramuscularly (0.1 ml/thigh) with a 1.67×10^4 inoculum count of Acinetobacter baumannii ATCC 17978. Vehicle control (40% Captisol), positive control (tigecycline) or test substances were then administered 2 hr post infection by the subcutaneous (SC) route of administration. Each dosing group consisted of 5 female mice. The MICs of the compounds against the test strain were 8 μg/ml, 2 μg/ml and […] for compound 201, compound 71 and compound 200, respectively. At 26 or 74 hours after inoculation (24 or 72 hr after treatment initiation), animals were euthanized with CO2 asphyxiation and the thigh tissue harvested from each of the test animals. The tissues were homogenized in 3 mL of PBS, pH 7.4 with a homogenizer. Homogenates, 0.1 mL, were used for serial 10-fold dilutions and plated onto NB agar for colony counts. Efficacy is calculated as the change in log CFU/g thigh vs. the time 0 (treatment initiation) control.\n[…]"}, "S. aureus ATCC 29213": {"test_system": "S. aureus ATCC 29213", "experiment": "Broth microdilution MIC assay", "type": "cell-based", "conditions": "Staphylococcus aureus, ATCC29213; CA-MHB, 35° C., 20 hours"}, "E. coli AG100": {"test_system": "E. coli AG100", "experiment": "Broth microdilution MIC assay", "type": "cell-based", "conditions": "Escherichia coli, CA-MHB, 35° C., 20 hours"}, "[2]": {"test_system": "A. baumannii ATCC BAA1605", "experiment": "Broth microdilution MIC assay", "type": "cell-based", "conditions": "Acinetobacter baumannii, ATCCBAA1605; CA-MHB, 35° C., 20 hours"}, "K. pneumoniae A6030827": {"test_system": "K. pneumoniae A6030827", "experiment": "Broth microdilution MIC assay", "type": "cell-based", "conditions": "Klebsiella pneumoniae, CA-MHB, 35° C., 20 hours"}, "[3]": {"test_system": "Acinetobacter baumannii ATCC 17978", "experiment": "Mouse thigh infection model", "type": "in vivo, BALB/c mice", "conditions": "for Mean Log CFU/g thigh 72 hr: 72 hr treatment", "description": "Groups of 5 female specific-pathogen-free BALB/c mice weighing 18±2 g were used. In the 24 hr model (bacterial counts determined 24 hr after treatment start), mice were rendered neutropenic with cyclophosphamide intraperitoneal (IP) administration conducted at Days −4 (150 mg/kg), and day −1 (100 mg/kg). In the 72 hr model (bacterial counts determined 72 hr after treatment start), animals were rendered persistently neutropenic for the duration of the infection period with cyclophosphamide intraperitoneal (IP) administration conducted at Days −4 (150 mg/kg), −1 (100 mg/kg) and +1 (100 mg/kg). Persistent neutropenia is required to prevent pathogen clearance from thigh tissue in the 74 hr model. Nutritional supplementation (diet gel) plus saline SC injections were provided daily to help animals tolerate the cyclophosphamide treatment.\nas §1"}}}
{"compound": "Cc1c(CN(C)C(=O)/C=C/c2cnc3c(c2)CC[C@H](N)C(=O)N3)oc2ccccc12.Cl", "note": "(single isomer, unassigned) [Compound 71]", "values": [{"measurement": "MIC", "setting": "[1]", "value": 2, "unit": "µg/mL"}, {"measurement": "MIC", "setting": "S. aureus ATCC 29213", "value": "≤ 4", "unit": "µg/mL"}, {"measurement": "MIC", "setting": "E. coli AG100", "value": "≤ 4", "unit": "µg/mL"}, {"measurement": "MIC", "setting": "[2]", "value": "≤ 4", "unit": "µg/mL"}, {"measurement": "MIC", "setting": "K. pneumoniae A6030827", "value": "≤ 4", "unit": "µg/mL"}, {"measurement": "Mean Change log CFU/g thigh 72 hr", "setting": "[3]; 25 mg/kg q6h SC, vs. time 0 control", "value": 2.25, "unit": "log CFU/g thigh"}, {"measurement": "Mean Log CFU/g thigh 72 hr", "setting": "[3]; 25 mg/kg q6h SC, total daily dose 100 mg/kg", "value": 7.09, "unit": "log CFU/g thigh"}, {"measurement": "Mean Change log CFU/g thigh 24 hr", "setting": "[3]; 50 mg/kg q6h SC, 24 hr, vs. time 0 control", "value": 0.60, "unit": "log CFU/g thigh"}, {"measurement": "Mean Change log CFU/g thigh 72 hr", "setting": "[3]; 50 mg/kg q6h SC, vs. time 0 control", "value": 1.10, "unit": "log CFU/g thigh"}, {"measurement": "Mean Log CFU/g thigh 24 hr", "setting": "[3]; 50 mg/kg q6h SC, total daily dose 200 mg/kg, 24 hr treatment", "value": 5.45, "unit": "log CFU/g thigh"}, {"measurement": "Mean Log CFU/g thigh 72 hr", "setting": "[3]; 50 mg/kg q6h SC, total daily dose 200 mg/kg", "value": 5.95, "unit": "log CFU/g thigh"}, {"measurement": "efficacy in words, thigh model summary", "setting": "[3]; SC, 24 hr and 72 hr treatment", "value": "very slight efficacy"}]}
